The record followed here is ChEMBL document CHEMBL1146860, “Bicyclo[3.1.0]hexyl urea melanin concentrating hormone (MCH) receptor-1 antagonists: impacting hERG liability via aryl modifications” (Bioorg Med Chem Lett, 2006).

One series addresses hERG (Homo sapiens, UniProt Q12809). Kind of series: Inhibition of hERG channel by rubidium efflux assay at 5 ug/ml. Type of series: toxicity.
Series [1] deals with Voltage-gated inwardly rectifying potassium channel KCNH2 (Homo sapiens, UniProt Q12809). Kind of series: Inhibition of hERG channel by voltage clamp assay. Type of series: toxicity. On the technique in general: hERG is a cardiac potassium channel; its block is linked to QT prolongation.
Chain of Voltage-gated inwardly rectifying potassium channel KCNH2 (Q12809 whole entry): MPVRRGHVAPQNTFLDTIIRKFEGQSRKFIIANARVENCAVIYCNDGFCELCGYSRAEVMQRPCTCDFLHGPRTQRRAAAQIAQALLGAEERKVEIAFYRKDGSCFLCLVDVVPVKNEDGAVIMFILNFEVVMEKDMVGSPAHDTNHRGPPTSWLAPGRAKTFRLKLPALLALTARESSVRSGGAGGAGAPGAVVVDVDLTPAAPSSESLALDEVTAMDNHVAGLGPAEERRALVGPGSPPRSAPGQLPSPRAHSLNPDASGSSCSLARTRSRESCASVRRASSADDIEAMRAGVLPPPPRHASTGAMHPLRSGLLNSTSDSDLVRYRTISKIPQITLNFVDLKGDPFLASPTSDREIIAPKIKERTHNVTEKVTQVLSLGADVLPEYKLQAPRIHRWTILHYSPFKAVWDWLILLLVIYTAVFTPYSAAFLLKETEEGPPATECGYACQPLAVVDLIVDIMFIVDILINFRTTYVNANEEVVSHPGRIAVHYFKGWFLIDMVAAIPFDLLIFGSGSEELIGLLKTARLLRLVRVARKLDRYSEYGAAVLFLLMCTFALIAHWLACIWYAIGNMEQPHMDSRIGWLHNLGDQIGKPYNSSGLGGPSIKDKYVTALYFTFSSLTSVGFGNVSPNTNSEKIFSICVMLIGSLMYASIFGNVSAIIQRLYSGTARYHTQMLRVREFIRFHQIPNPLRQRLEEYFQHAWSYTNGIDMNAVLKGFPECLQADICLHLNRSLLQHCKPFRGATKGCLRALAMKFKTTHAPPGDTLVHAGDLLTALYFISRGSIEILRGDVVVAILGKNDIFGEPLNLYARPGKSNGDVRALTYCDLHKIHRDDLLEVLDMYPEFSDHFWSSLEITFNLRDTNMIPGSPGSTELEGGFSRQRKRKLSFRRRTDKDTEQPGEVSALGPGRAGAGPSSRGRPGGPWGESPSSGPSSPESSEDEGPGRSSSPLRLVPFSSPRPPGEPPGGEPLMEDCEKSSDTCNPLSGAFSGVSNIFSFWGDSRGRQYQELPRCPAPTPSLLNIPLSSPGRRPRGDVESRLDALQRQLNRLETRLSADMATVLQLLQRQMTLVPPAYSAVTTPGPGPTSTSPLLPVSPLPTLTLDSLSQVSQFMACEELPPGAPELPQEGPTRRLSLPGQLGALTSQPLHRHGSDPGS
The target of series [2] is Melanin-concentrating hormone receptor 1 (Homo sapiens, UniProt Q99705). Kind of series: Binding affinity to MCHR1.
Chain of Melanin-concentrating hormone receptor 1 (Q99705 whole entry): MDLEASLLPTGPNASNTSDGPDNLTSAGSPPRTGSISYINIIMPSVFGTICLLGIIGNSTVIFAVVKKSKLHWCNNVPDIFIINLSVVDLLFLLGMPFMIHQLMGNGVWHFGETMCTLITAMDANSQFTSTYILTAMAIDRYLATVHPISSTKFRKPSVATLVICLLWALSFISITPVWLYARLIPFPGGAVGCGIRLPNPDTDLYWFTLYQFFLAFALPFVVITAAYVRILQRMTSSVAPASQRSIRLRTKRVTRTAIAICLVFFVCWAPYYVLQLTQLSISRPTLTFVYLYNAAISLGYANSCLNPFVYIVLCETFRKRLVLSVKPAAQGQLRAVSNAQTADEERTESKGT
Series [3] is described as follows: AUC (0-6h) in rat at 10 mg/kg, po. Type of series: ADME, organism-based. On the set-up: time < 6 hr, dose 10 mg/kg, route oral. As to conditions: plasma.

pIC50, pKi: −log10 of the molar value.

Chain of hERG (Q12809 whole entry): as the sequence (Q12809 whole entry) above

`CN1CCN(CCCN(C(=O)Nc2ccc(F)c(C(F)(F)F)c2)[C@@H]2CC[C@]3(c4ccc(C#N)cc4)C[C@H]23)CC1`: the inhibition (as a rule, the percentage by which the read-out fell short of the control) at 5 ug/ml against hERG was 86%. In series [1], the pIC50 (as a rule, the IC50 on a negative log10 scale, so that one unit is a factor of ten) was 7.28.

Take `CN1CCN(CCCN(C(=O)Nc2ccc(F)c(C(F)(F)F)c2)[C@@H]2CC[C@]3(c4ccc5c(N)noc5c4)C[C@H]23)CC1`: at hERG, the inhibition at 5 ug/ml amounted to 26%. Besides, the pIC50 in series [1] is 6.16.

For `COc1cccc([C@]23CC[C@@H](N(CCCN4CCN(C)CC4)C(=O)Nc4ccc(F)c(Cl)c4)[C@H]2C3)c1`, the inhibition at 5 ug/ml against hERG amounted to 70%. The pKi (in general, the Ki on a negative log10 scale, so that one unit is a factor of ten) in series [2] was 8.57.

Consider `CN1CCN(CCCN(C(=O)Nc2ccc(F)c(C(F)(F)F)c2)[C@@H]2CC[C@]3(c4ccc(=O)[nH]c4)C[C@H]23)CC1`, for which the inhibition at 5 ug/ml at hERG is 9%.

For the molecule `CC(=O)Nc1ccc([C@]23CC[C@@H](N(CCCN4CCN(C)CC4)C(=O)Nc4ccc(F)c(Cl)c4)[C@H]2C3)cc1`, the inhibition at 5 ug/ml against hERG stood at 18%.

On hERG, `CNC(=O)c1ccc([C@]23CC[C@@H](N(CCCN4CCN(C)CC4)C(=O)Nc4ccc(F)c(C(F)(F)F)c4)[C@H]2C3)cc1` registered an inhibition at 5 ug/ml of 25%.

Regarding `CN1CCN(CCCN(C(=O)Nc2ccc(F)c(Cl)c2)[C@@H]2CC[C@]3(c4cccc(N5CCCC5=O)c4)C[C@H]23)CC1`, the inhibition at 5 ug/ml on hERG amounted to 14%.

Turning to `CN1CCN(CCCN(C(=O)Nc2ccc(F)c(Cl)c2)[C@@H]2CC[C@]3(c4cccc(NC(=O)C5CC5)c4)C[C@H]23)CC1`, the inhibition at 5 ug/ml at hERG came to 46%. In addition, the pKi in series [2] was 8.17. In addition, in series [3], the AUC(0-t) (usually exposure summed from dosing to a finite time, without extrapolation to infinity) at 6 h was 634 ng·h/mL.

The molecule `CN1CCN(CCCN(C(=O)Nc2ccc(F)c(Cl)c2)[C@@H]2CC[C@]3(c4ccc(N)cc4)C[C@H]23)CC1` showed an inhibition at 5 ug/ml on hERG of 16%. The pKi in series [2] is 8.36.

`CCC(=O)Nc1cccc([C@]23CC[C@@H](N(CCCN4CCN(C)CC4)C(=O)Nc4ccc(F)c(Cl)c4)[C@H]2C3)c1` showed an inhibition at 5 ug/ml against hERG of 34%.

With `CN1CCN(CCCN(C(=O)Nc2ccc(F)c(C(F)(F)F)c2)[C@@H]2CC[C@]3(c4ccc5c(c4)CC(=O)N5)C[C@H]23)CC1`, the inhibition at 5 ug/ml against hERG is 50%. In series [2], this molecule had a pKi of 7.82.

On hERG, `CC(C)C(=O)Nc1cccc([C@]23CC[C@@H](N(CCCN4CCN(C)CC4)C(=O)Nc4ccc(F)c(Cl)c4)[C@H]2C3)c1` displayed an inhibition at 5 ug/ml of 37%. In series [2], this molecule gave a pKi of 7.82. In addition, the AUC(0-t) at 6 h in series [3] came out at 339 ng·h/mL.

As to `CN1CCN(CCCN(C(=O)Nc2ccc(F)c(Cl)c2)[C@@H]2CC[C@]3(c4ccc(NC(=O)OC(C)(C)C)cc4)C[C@H]23)CC1`, at hERG, the inhibition at 5 ug/ml was determined as 87%.

The molecule `CCNC(=O)Nc1cccc([C@]23CC[C@@H](N(CCCN4CCN(C)CC4)C(=O)Nc4ccc(F)c(Cl)c4)[C@H]2C3)c1` yielded an inhibition at 5 ug/ml against hERG of 17%. Besides, the pKi in series [2] is 7.55. The same molecule displayed an AUC(0-t) at 6 h in series [3] of 127 ng·h/mL.

With `CN1CCN(CCCN(C(=O)Nc2ccc(F)c(Cl)c2)[C@@H]2CC[C@]3(c4cccc(N5CCC5)c4)C[C@H]23)CC1`, the inhibition at 5 ug/ml at hERG turned out to be 29%.

Take `COc1ccc([C@]23CC[C@@H](N(CCCN4CCN(C)CC4)C(=O)Nc4ccc(F)c(C(F)(F)F)c4)[C@H]2C3)cn1`: the inhibition at 5 ug/ml against hERG is 36%.

As to `CN1CCN(CCCN(C(=O)Nc2ccc(F)c(C(F)(F)F)c2)[C@@H]2CC[C@]3(c4ccc5onc(N)c5c4)C[C@H]23)CC1`, at hERG, the inhibition at 5 ug/ml was 46%. In series [2], this molecule gave a pKi of 7.34.

In the case of `CN1CCN(CCCN(C(=O)Nc2ccc(F)c(Cl)c2)[C@@H]2CC[C@]3(c4ccc(F)cc4)C[C@H]23)CC1`, on hERG, the inhibition at 5 ug/ml amounted to 87%.

The molecule `CN1CCN(CCCN(C(=O)Nc2ccc(F)c(C(F)(F)F)c2)[C@@H]2CC[C@]3(c4ccc(S(C)(=O)=O)cc4)C[C@H]23)CC1` had an inhibition at 5 ug/ml against hERG of 46%.

In turn, `CN1CCN(CCCN(C(=O)Nc2ccc(F)c(Cl)c2)[C@@H]2CC[C@]3(c4ccccc4)C[C@H]23)CC1` came in with an inhibition at 5 ug/ml at hERG of 58%.

With `CN1CCN(CCCN(C(=O)Nc2ccc(F)c(Cl)c2)[C@@H]2CC[C@]3(c4cccc(N)c4)C[C@H]23)CC1`, the inhibition at 5 ug/ml at hERG stood at 25%. This molecule showed a pKi in series [2] of 8.02.

As to `CC(=O)Nc1cccc([C@]23CC[C@@H](N(CCCN4CCN(C)CC4)C(=O)Nc4ccc(F)c(Cl)c4)[C@H]2C3)c1`, on hERG, the inhibition at 5 ug/ml was 19%.

For `CN1CCN(CCCN(C(=O)Nc2ccc(F)c(C(F)(F)F)c2)[C@@H]2CC[C@]3(c4nccs4)C[C@H]23)CC1`, the inhibition at 5 ug/ml at hERG was 27%.

In turn, `CN1CCN(CCCN(C(=O)Nc2ccc(F)c(C(F)(F)F)c2)[C@@H]2CC[C@]3(c4ccsc4)C[C@H]23)CC1` showed an inhibition at 5 ug/ml against hERG of 75%.

In the case of `CN1CCN(CCCN(C(=O)Nc2ccc(F)c(Cl)c2)[C@@H]2CC[C@]3(c4cccnc4)C[C@H]23)CC1`, the inhibition at 5 ug/ml against hERG amounted to 97%.

Molecule `CN1CCN(CCCN(C(=O)Nc2ccc(F)c(Cl)c2)[C@@H]2CC[C@]3(c4cccc(NC(=O)C(C)(C)C)c4)C[C@H]23)CC1` displayed an inhibition at 5 ug/ml against hERG of 27%.

`COC(=O)c1ccc([C@]23CC[C@@H](N(CCCN4CCN(C)CC4)C(=O)Nc4ccc(F)c(C(F)(F)F)c4)[C@H]2C3)cc1` (single isomer, unassigned) had an inhibition at 5 ug/ml against hERG of 63%.
